From ChEMBL document CHEMBL6115006, “Discovery of potent quinone oxidoreductase 2 inhibitors to overcome TRAIL resistance of non-small cell lung cancer” (Eur J Med Chem, 2025)
pIC50: −log10 of the molar value.

Assays:
A549 = test: cells; settings: Homo sapiens, A549, 48 h, read-out: INH
[1] = molecular target: T1, Ribosyldihydronicotinamide dehydrogenase [quinone] (Homo sapiens, UniProt P16083)
T1 sequence (P16083 whole entry): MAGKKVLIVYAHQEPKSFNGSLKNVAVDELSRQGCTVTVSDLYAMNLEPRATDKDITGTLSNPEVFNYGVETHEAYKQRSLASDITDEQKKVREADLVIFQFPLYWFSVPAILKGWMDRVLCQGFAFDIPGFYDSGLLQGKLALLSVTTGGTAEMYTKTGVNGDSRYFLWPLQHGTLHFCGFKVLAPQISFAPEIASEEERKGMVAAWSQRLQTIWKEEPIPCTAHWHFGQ
Description: Inhibition of recombinant human NQO2 using DCPIP and EPR as substrate measured over 1 min in presence of FAD by spectrophotometric analysis

Structure (SMILES)	inhibition at 10 µM (A549) [%]	pIC50 [1]
COc1cc(/C=C/c2ccc(N)cc2)cc(OC)c1OC	14.7	
COc1cc(-c2ccc3cc(N)ccc3c2)cc(OC)c1OC	24.3	7.16
Oc1ccc(/C=C/c2cc(O)cc(O)c2)cc1 [RESVERATROL]	15.4	
